In experiment [1] the target is soluble human BACE1 catalytic domain (Homo sapiens, UniProt P56817). The experiment can be described thus: BACE1 HTRF FRET Assay. The format is biochemical. To be noted: Ki calculated from IC50 using the Cheng-Prusoff equation; QSY7-APPswe-Eu substrate 200 nM, pH 5.0. The text has this:
Na^+-Acetate pH 5.0; 1% Brij-35; Glycerol; Dimethyl Sulfoxide (DMSO); Recombinant human soluble BACE1 catalytic domain (>95% pure); APP Swedish mutant peptide substrate (QSY7-APP^swe-Eu): QSY7-EISEVNLDAEFC-Europium-amide.
A homogeneous time-resolved FRET assay can be used to determine IC50 values for inhibitors of the soluble human BACE1 catalytic domain. This assay monitors the increase of 620 nm fluorescence that resulted from BACE1 cleavage of an APPswedish APP^swe mutant peptide FRET substrate (QSY7-EISEVNLDAEFC-Europium-amide). This substrate contains an N-terminal QSY7 moiety that serves as a quencher of the C-terminal Europium fluorophore (620 nm Em). In the absence of enzyme activity, 620 nm fluorescence is low in the assay and increased linearly over 3 hours in the presence of uninhibited BACE1 enzyme. Inhibition of BACE1 cleavage of the QSY7-APP^swe-Eu substrate by inhibitors is manifested as a suppression of 620 nm fluorescence.
Varying concentrations of inhibitors at 3× the final desired concentration in a volume of 10 ul are preincubated with purified human BACE1 catalytic domain (3 nM in 10 μl) for 30 minutes at 30° C. in reaction buffer containing 20 mM Na-Acetate pH 5.0, 10% glycerol, 0.1% Brij-35 and 7.5% DSMO. Reactions are initiated by addition of 10 μl of 600 nM QSY7-APP^swe-Eu substrate (200 nM final) to give a final reaction volume of 30 μl in a 384 well Nunc HTRF plate. The reactions are incubated at 30° C. for 1.5 hours. The 620 nm fluorescence is then read on a Rubystar HTRF plate reader (BMG Labtechnologies) using a 50 millisecond delay followed by a 400 millisecond acquisition time window. Inhibitor IC50 values are derived from non-linear regression analysis of concentration response curves. Ki values are then calculated from IC50 values using the Cheng-Prusoff equation using a previously determined […] for the QSY7-APP^swe-Eu substrate at BACE1.

Experiment [2] addresses T1, purified human autoBACE-2 (Homo sapiens, UniProt Q9Y5Z0).
T1 sequence (Q9Y5Z0 63-473 limits assumed): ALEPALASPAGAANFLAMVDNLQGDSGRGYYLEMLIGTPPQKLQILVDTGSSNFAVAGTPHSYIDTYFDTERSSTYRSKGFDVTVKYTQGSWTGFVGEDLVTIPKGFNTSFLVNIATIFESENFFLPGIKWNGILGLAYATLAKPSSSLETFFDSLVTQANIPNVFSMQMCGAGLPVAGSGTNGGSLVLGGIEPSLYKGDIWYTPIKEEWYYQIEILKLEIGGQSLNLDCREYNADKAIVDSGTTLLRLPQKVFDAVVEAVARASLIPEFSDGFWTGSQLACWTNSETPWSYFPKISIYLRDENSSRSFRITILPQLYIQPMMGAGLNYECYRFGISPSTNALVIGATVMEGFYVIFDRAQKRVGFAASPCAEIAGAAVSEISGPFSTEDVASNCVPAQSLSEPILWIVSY
Briefly: BACE-2 Assay (BACE-HTRF assay). To be noted: Ki calculated from IC50 using the Cheng-Prusoff equation; QSY7-EISEVNLDAEFC-Eu-amide substrate 200 nM, pH 5.0; read-out: BACE2 Ki. The format is biochemical. How it is done: Inhibitor ICsos at purified human autoBACE-2 are determined in a time-resolved endpoint proteolysis assay that measures hydrolysis of the QSY7-EISEVNLDAEFC-Eu-amide FRET peptide substrate (BACE-HTRF assay). BACE-mediated hydrolysis of this peptide results in an increase in relative fluorescence (RFU) at 620 nm after excitation with 320 nm light. Inhibitor compounds, prepared at 3× the desired final concentration in 1×BACE assay buffer (20 mM sodium acetate pH 5.0, 10% glycerol, 0.1% Brij-35) supplemented with 7.5% DMSO are preincubated with an equal volume of autoBACE-2 enzyme diluted in 1×BACE assay buffer (final enzyme concentration 1 nM) in black 384-well NUNC plates for 30 minutes at 30° C. The assay is initiated by addition of an equal volume of the QSY7-EISEVNLDAEFC-Eu-amide substrate (200 nM final concentration, […]) prepared in 1×BACE assay buffer supplemented with 7.5% DMSO and incubated for 90 minutes at 30° C. DMSO is present at 5% final concentration in the assay. Following laser excitation of sample wells at 320 nm, the fluorescence signal at 620 nm is collected for 400 ms following a 50 μs delay on a RUBYstar HTRF plate reader (BMG Labtechnologies). Raw RFU data is normalized to maximum (1.0 nM BACE/DMSO) and minimum (no enzyme/DMSO) RFU values. IC50s are determined by nonlinear regression analysis (sigmoidal dose response, variable slope) of percent inhibition data with minimum and maximum values set to 0 and 100 percent respectively. Similar IC50s are obtained when using raw RFU data. The Ki values are calculated from the IC50 using the Cheng-Prusoff equation.

Chain of soluble human BACE1 catalytic domain (P56817 75-416 limits assumed): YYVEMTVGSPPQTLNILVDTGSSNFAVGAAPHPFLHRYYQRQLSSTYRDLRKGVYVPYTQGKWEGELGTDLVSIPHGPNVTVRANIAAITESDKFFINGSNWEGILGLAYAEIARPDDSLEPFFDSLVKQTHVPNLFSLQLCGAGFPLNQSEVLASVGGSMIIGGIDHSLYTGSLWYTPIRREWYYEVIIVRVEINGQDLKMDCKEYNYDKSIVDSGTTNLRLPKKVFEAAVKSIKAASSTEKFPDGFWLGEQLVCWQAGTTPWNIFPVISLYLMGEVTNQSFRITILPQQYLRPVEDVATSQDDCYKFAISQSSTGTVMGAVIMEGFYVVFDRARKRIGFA

As usually defined, the Ki is a dissociation constant, usually derived from enzyme kinetics or from competition with a known ligand. For the molecule `CC1(C)C(=N)N[C@@]2(COCc3ccc(NC(=O)c4cnc(OCC(F)(F)F)cn4)cc32)CS1(=O)=O` [Example E-16], the inhibitory constant (Ki) in experiment [1] was 101 nM; in experiment [2] it was 402 nM.
For `Cc1cc(C#N)cnc1C(=O)Nc1ccc2c(c1)[C@]1(CCO2)CS(=O)(=O)C(C)(C)C(=N)N1` [Example C-22], in that order: 2 nM and 3 nM.
For `COc1cnc(C(=O)Nc2ccc3c(c2)[C@]2(CCC3)CS(=O)(=O)C(C)(C)C(=N)N2)c(C)n1` [Example G-9], in that order: 64 nM and 17 nM.
As for `C#CCOc1ccc(C(=O)Nc2ccc3c(c2)[C@]2(COC3)CS(=O)(=O)C(C)(C)C(=N)N2)nc1` [Example E-19], the figures for the Ki in experiment [1] and in experiment [2] were 30 nM and 185 nM, respectively.
The like results for `CC1(C)C(=N)N[C@@]2(CCOc3ccc(NC(=O)c4ccn(C(F)F)n4)cc32)CS1(=O)=O` [Example C-1] were, in that order, 3 nM and 1 nM.
For `CC1(C)C(=N)N[C@@]2(CCOc3ccc(NC(=O)c4ccc(OC(F)(F)F)cn4)cc32)CS1(=O)=O` [Example C-11], in that order: 10 nM and 41 nM.
The like results for `COc1cnc(C(=O)Nc2ccc3c(c2)[C@]2(CCO3)CS(=O)(=O)C(C)(C)C(=N)N2)c(C)c1` [Example C-20] were, in that order, 20 nM and 3 nM.
Take `CC1(C)C(=N)N[C@@]2(CCOc3ccc(NC(=O)c4cc5ccccn5n4)cc32)CS1(=O)=O` [Example C-5]: the Ki in experiment [1] is 223 nM; in experiment [2], 49 nM.
For `COc1cnc(C(=O)Nc2ccc3c(c2)[C@]2(CCO3)CS(=O)(=O)C(C)(C)C(=N)N2)c(C)n1` [Example C-21], in that order: 40 nM and 20 nM.
For `CC1(C)C(=N)N[C@@]2(COCc3ccc(NC(=O)c4cn5cc(C#N)ccc5n4)cc32)CS1(=O)=O` [Example E-12], in that order: 556 nM and 2950 nM.
For `Cc1nc(C(=O)Nc2ccc3c(c2)[C@]2(CCC3)CS(=O)(=O)C(C)(C)C(=N)N2)co1` [Example G-19], in that order: 21 nM and 3 nM.
Consider `CC1(C)C(=N)N[C@@]2(CCCc3ccc(NC(=O)c4cnsn4)cc32)CS1(=O)=O` [Example G-2], for which the Ki is 35 nM in experiment [1] and 7 nM in experiment [2].
The like results for `CC#CCOc1ccc(C(=O)Nc2ccc3c(c2)[C@]2(CCO3)CS(=O)(=O)C(C)(C)C(=N)N2)nc1` [Example C-18] were, in that order, 3 nM and 45 nM.
In the case of `CC1(C)C(=N)N[C@@]2(CCCc3ccc(NC(=O)c4ncc(C(F)(F)F)cn4)cc32)CS1(=O)=O` [Example G-22], the Ki in experiment [1] is 160 nM; in experiment [2], 161 nM.
The like results for `COc1cnc(C(=O)Nc2ccc3c(c2)[C@]2(CCC3)CS(=O)(=O)C(C)(C)C(=N)N2)c(C)c1` [Example G-8] were, in that order, 19 nM and 2 nM.
For `CC1(C)C(=N)N[C@@]2(CCOc3ccc(NC(=O)c4ccc(C#N)cn4)cc32)CS1(=O)=O` [Example C-15], in that order: 3 nM and 9 nM.
For `COc1ccc(C(=O)Nc2ccc3c(c2)[C@]2(CCO3)CS(=O)(=O)C(C)(C)C(=N)N2)nc1` [Example B-2], in that order: 58 nM and 28 nM.
On to `Cc1nc(C(=O)Nc2ccc3c(c2)[C@]2(COC3)CS(=O)(=O)C(C)(C)C(=N)N2)co1` [Example E-23], for which the figures for the Ki in experiment [1] and in experiment [2] were 66 nM and 7 nM, respectively.
Turning to `CC1(C)C(=N)N[C@@]2(COCc3ccc(NC(=O)c4ncc(Cl)cc4F)cc32)CS1(=O)=O` [Example E-15], the Ki was 37 nM in experiment [1] and 5 nM in experiment [2].
The like results for `C#CCOc1ccc(C(=O)Nc2ccc3c(c2)[C@]2(CCC3)CS(=O)(=O)C(C)(C)C(=N)N2)nc1` [Example G-7] were, in that order, 10 nM and 51 nM.
For `CC1(C)C(=N)N[C@@]2(CCOc3ccc(NC(=O)c4ccc(Cl)cn4)cc32)CS1(=O)=O` [Example B-1], in that order: 8 nM and 2 nM.
The like results for `CC1(C)C(=N)N[C@@]2(CCOc3ccc(NC(=O)C(F)F)cc32)CS1(=O)=O` [Example B-4] were, in that order, 1280 nM and 115 nM.
As for `COc1cnc(C(=O)Nc2ccc3c(c2)[C@]2(COC3)CS(=O)(=O)C(C)(C)C(=N)N2)c(C)n1` [Example E-20], the values for the Ki in experiment [1] and in experiment [2] were 218 nM and 60 nM, respectively.
For `Cc1nc(C(=O)Nc2ccc3c(c2)[C@]2(CCC3)CS(=O)(=O)C(C)(C)C(=N)N2)no1` [Example G-13], in that order: 83 nM and 6 nM.
The like results for `CC1(C)C(=N)N[C@@]2(CCCc3ccc(NC(=O)c4ccc(OCF)cn4)cc32)CS1(=O)=O` [Example G-18] were, in that order, 18 nM and 7 nM.
For `COc1cnc(C(=O)Nc2ccc3c(c2)[C@]2(CCO3)CS(=O)(=O)C(C)(C)C(=N)N2)cn1` [Example C-23], in that order: 52 nM and 46 nM.
With `CC1(C)C(=N)N[C@@]2(CCCc3ccc(NC(=O)c4cn5cc(C#N)ccc5n4)cc32)CS1(=O)=O` [Example G-23], the Ki is 138 nM in experiment [1] and 1120 nM in experiment [2].
The like results for `CC1(C)C(=N)N[C@@]2(CCOc3ccc(NC(=O)c4ncc(C(F)(F)F)cn4)cc32)CS1(=O)=O` [Example C-16] were, in that order, 107 nM and 98 nM.
The like results for `Cc1nc(C(=O)Nc2ccc3c(c2)[C@]2(COC3)CS(=O)(=O)C(C)(C)C(=N)N2)no1` [Example E-8] were, in that order, 281 nM and 12 nM.
For `CC1(C)C(=N)N[C@@]2(CCCc3ccc(NC(=O)c4ccc(Cl)cn4)cc32)CS1(=O)=O` [Example F-1], in that order: 11 nM and 3 nM.
`CC1(C)C(=N)N[C@@]2(CCCc3ccc(NC(=O)c4ccc(C#N)cn4)cc32)CS1(=O)=O` [Example G-21]: the Ki was 4 nM in experiment [1] and 12 nM in experiment [2].
The like results for `COCC(=O)Nc1ccc2c(c1)[C@]1(CCO2)CS(=O)(=O)C(C)(C)C(=N)N1` [Example B-3] were, in that order, 391 nM and 59 nM.
Consider `COc1cnc(C(=O)Nc2ccc3c(c2)[C@]2(COC3)CS(=O)(=O)C(C)(C)C(=N)N2)c(C)c1` [Example E-11], for which the Ki in experiment [1] is 59 nM; in experiment [2], 5 nM.
In the case of `CC1(C)C(=N)N[C@@]2(COCc3ccc(NC(=O)c4ccc(C#N)cn4)cc32)CS1(=O)=O` [Example E-14], the Ki in experiment [1] is 11 nM; in experiment [2] it was 35 nM.
The like results for `CC1(C)C(=N)N[C@@]2(COCc3ccc(NC(=O)c4ncc(C(F)(F)F)cn4)cc32)CS1(=O)=O` [Example E-1] were, in that order, 644 nM and 512 nM.
